Data taken from patent US8410075B2, “Mannich base N-oxide drugs” (Cascade Prodrug Inc., priority 2007, dated 2013).

Key:
[1] = Hydrolysis of Mannich bases; assay type: physicochemical
Procedure: We observed that indole-derived Mannich bases 30, 32 and 34, unlike the other Mannich bases herein described, were quite stable toward hydrolysis. For example, only 30% of Mannich base 34 was hydrolyzed after 80 h in D2O.

[2] = observed by Sloan et al.; could not be isolated as a stable molecule; cited from earlier work
[3] = Stability of Mannich base N-oxides in D2O monitored by 1H NMR; assay type: physicochemical; conditions: for at least several days
Procedure: The mixture of 3 and 4 was rechromatographed on a Chromatotron with 5:3:0.3 dichloromethane/methanol/ammonia as eluent to give 200 mg (22%) of the N^3 isomer 3 (faster moving isomer on TLC) which was pure by TLC, ^1H and ^19F NMR spectroscopy. The ^1H and ^19F NMR spectra of 3 (D2O) were consistent with the assigned structure. APCI MS (m/e): Calcd. for C9H12FN3O4 (M+H), 246.0; found (M+H) 246.0. Continued elution gave 140 mg (15% yield) of the N^1 isomer 4 (slower moving spot on TLC), which was pure by TLC, ^1H and ^19F NMR spectroscopy. APCI MS (m/e): Calcd. for C9H12FN3O4 (M+H), 246.0; found (M+H) 246.0. N-oxides 3, 4, and 5 were stable in D2O for at least several days as monitored by ^1H NMR spectroscopy. The structures of Mannich base N-oxides 3 and 4 were confirmed by single crystal x-ray analysis. Example 6

[4] = Reduction of 5-FU-derived Mannich base N-oxides with triphenylphosphine in CDCl3 and hydrolysis to 5-fluorouracil (1H and 19F NMR); assay type: physicochemical; conditions: mixture of N-oxides 3 and 4, 2 equiv triphenylphosphine in CDCl3 at RT, 70-h time period
Procedure: Triphenylphosphine is known to reduce N-oxides to the corresponding amines See Gallos, J. K. and Argyropoulos, N. G. Synthesis 1:83-86 (1991). A mixture of N-oxides 3 and 4 was dissolved in CDCl3 and then treated with 2 equiv of triphenylphosphine in CDCl3 at RT and monitored by ^1H and ^19F NMR spectroscopy. According to the ^1H and ^19F NMR spectra, the N-oxides underwent reduction and spontaneous hydrolysis to 5-fluorouracil to the extent of about 90% over a 70-h time period. Thus, not only are the N-oxide groups reduced back to the corresponding Mannich bases, but also the Mannich bases undergo hydrolysis back to 5-FU in the presence of adventitious water.

[5] = Rearrangement of Mannich base N-oxides to O-substituted hydroxylamine isomers in solution (NMR); assay type: physicochemical; conditions: for conversion to rearranged product 20: chloroform solution at RT for 72 h
Text: Examples 5-14 describe the synthesis of several Mannich bases (structures B and structures G in Chart 1) and the corresponding Mannich base N-oxides (structures C and H). In cases where R═H in structure A, the synthesis of the rearranged N-oxide isomer D is also described. […] However, when R═H in A, the Mannich base N-oxide C (R═H) undergoes rearrangement over time to the corresponding isomer D. Rearrangement tends to be very slow (several days) in aqueous solution but more rapid (a few hours) in CDCl3 and depends to some extent on which secondary amine was used to prepare the Mannich base. In one case, the hydrochloride salt (structure E) of a Mannich base N-oxide C where R═H was prepared. Mannich base N-oxide salt E was stable toward rearrangement.
N-(Dimethyl-N′-oxido-aminomethyl)-benzamide (13) and N-(Dimethyl-aminooxymethyl)-benzamide (14). Mannich base 12 (0.18 g, 0.001 mol) was dissolved in dichloromethane (5 mL) and then solid MCPBA (0.26 g, 0.0015 mol) was added to the stirred solution in an ice/water bath. After stirring for 20 min as the solution warmed to RT, the solvent was evaporated. The residue was chromatographed on a Chromatotron with dichloromethane/methanol as eluent. Evaporation of the eluent in the cold is accompanied by rearrangement, giving 150 mg (66%) of the mixture Mannich base N-oxide 13 (Rf˜0.2 in dichloromethane/methanol, 5:1) and the rearranged benzamide derivative 14 (Rf˜0.8 in dichloromethane/methanol, 5:1). A sample of the mixture was allowed to stand in CDCl3 at RT while it was monitored by ^1H NMR.
N-(Piperidin-1-oxido-1-yl-methyl)-benzamide (16) and N-(Piperidin-1-yloxymethyl)-benzamide (17). Mannich base 15 (0.2 g, 0.92 mmol) was dissolved in 2 mL of dichloromethane and then the solution was added to a stirred solution of MCPBA (0.24 g, 1. 14 mmol) in 2 mL of dichloromethane in an ice/water bath. After 5 min of stirring at RT, the solvent was evaporated and the residue was chromatographed on a Chromatotron with dichloromethane/methanol mixture, 5:1 to 5:3 as eluent. The desired fractions were combined and the solvents were evaporated to give Mannich base N-oxide 16 (0.15 g, 72% yield). […] The ^1H and ^13C NMR spectra of 17 are consistent with the assigned structure. […] It was difficult to get clean NMR spectra of 16 in any solvent.
N-(Morpholin-4-oxido-4-ylmethyl)-benzamide (19) and N-(Morpholin-4-oxido-4-ylmethyl)-benzamide Hydrochloride (21) and N-(Morpholin-4-yloxymethyl)-benzamide (20). Mannich base 18 (0.283 g, 1.3 mmol) was dissolved in dichloromethane (6 mL) and the solution was cooled in an ice/water bath. To this stirred solution MCPBA (0.3 g, 1.7 mmol) was added as a solid. After 10 min the reaction mixture was divided in half. The first half was evaporated and chromatographed on a Chromatotron with dichloromethane/methanol 5:0.5 to 5:2 as eluent giving mostly rearranged product 20 (0.1 g, 67%). […] The ^1H and ^13C NMR spectra of 20 were consistent with the assigned structure. APCI MS (m/z): Calcd. for 20, C12H17N2O3 (M+1) 236.1; Found 236.1 A sample of 20 was recrystallized from EtOAc/hexanes giving crystals that were subject to x-ray analysis.
The second half of the MCPBA oxidation solution was extracted with 1N HCl. The water layer was evaporated to dryness and then the residue was treated with dichloromethane and re-evaporated to give the N-oxide HCl salt 21 (0.11 g, 73%) as a waxy solid which was stable in CDCl3 solution for several days. The ^1H NMR spectra were consistent with the assigned structure. […] A sample of 21 was recrystallized from MeOH/Et2O giving crystals that were subject to x-ray analysis. APCI MS (m/z APCI MS (m/z): Calcd. 21 C12H17N2O3 (M+1) 236.1; Found 236.1.

O=c1c(F)cn(CN2CCOCC2)c(=O)n1CN1CCOCC1 [Mannich base 2, 5-Fluoro-1,3-bis-morpholin-4-ylmethyl-1H-pyrimidine-2,4-dione]
stability toward hydrolysis [1]: extreme sensitivity

CN(C)Cn1cc(F)c(=O)n(CN(C)C)c1=O [Mannich base 6, 1,3-Bis-dimethylaminomethyl-5-fluoro-1H-pyrimidine-2,4-dione]
sensitivity toward hydrolysis [2]: very sensitive

CN(C)Cn1ccc2ccccc21 [Mannich base 32, N-(Dimethylaminomethyl)-indole]
stability toward hydrolysis [1]: quite stable

O=c1[nH]cc(F)c(=O)n1C[N+]1([O-])CCOCC1 [Mannich base N-oxide 3, 5-Fluoro-3-(4-oxido-morpholin-4-yl-methyl)-1H-pyrimidine-2,4-dione]
stability in D2O [3]: stable | extent of reduction and spontaneous hydrolysis to 5-fluorouracil [4]: about 90%

O=c1[nH]c(=O)n(C[N+]2([O-])CCOCC2)cc1F [Mannich base N-oxide 4, 5-fluoro-1-(4-oxido-morpholin-4-yl-methyl)-1H-pyrimidine-2,4-dione]
stability in D2O [3]: stable | extent of reduction and spontaneous hydrolysis to 5-fluorouracil [4]: about 90%

O=c1c(F)cn(C[N+]2([O-])CCOCC2)c(=O)n1C[N+]1([O-])CCOCC1 [Mannich base N-oxide 5, 5-fluoro-1,3-bis-(4-oxido-morpholin-4-yl-methyl)-1H-pyrimidine-2,4-dione]
stability in D2O [3]: stable

O=C(NC[N+]1([O-])CCCCC1)c1ccccc1 [Mannich base N-oxide 16, N-(Piperidin-1-oxido-1-yl-methyl)-benzamide]
rearranged product 17 in 1H NMR spectrum ([5]; D2O): 10-20% | onset of rearrangement of 16 to 17 ([5]; after adding CDCl3): starts immediately

O=C(NC[N+]1([O-])CCOCC1)c1ccccc1 [Mannich base N-oxide 19, N-(Morpholin-4-oxido-4-ylmethyl)-benzamide]
conversion to rearranged product 20 [5]: clean conversion

Cl.O=C(NC[N+]1([O-])CCOCC1)c1ccccc1 [N-oxide HCl salt 21, N-(Morpholin-4-oxido-4-ylmethyl)-benzamide Hydrochloride]
stability in CDCl3 solution ([5]; CDCl3 solution, several days): stable | conversion to rearranged product 20 [5]: no rearranged product 20 was formed

N-(Dimethyl-N′-oxido-aminomethyl)-benzamide [Mannich base N-oxide 13]
conversion to the rearranged product ([5]; CDCl3 at RT, over several hours, 1H NMR): Essentially complete conversion
